Source: patent US7037644B1, “Means and methods for monitoring non-nucleoside reverse transcriptase inhibitor antiretroviral therapy and guiding therapeutic decisions in the treatment of HIV/AIDS” (ViroLogic, Inc., priority 1998, dated 2006)

What was measured:
[1] = test system: RTV-300, patient 97-300 (RT K32N, M184V, Y188L); experiment: Phenotypic susceptibility assay (patient RTV); format: cell-based, HIV-1; conditions: patient RTV pool
Method: The resistance test vectors containing a functional luciferase gene cassette were constructed and host cells were transfected with the resistance test vector DNA. The resistant test vectors contained patient-derived reverse transcriptase and protease sequences that were either susceptible or resistant to the antiretroviral agents, such as nucleoside reverse transcriptase inhibitors, non-nucleoside reverse transcriptase inhibitors and protease inhibitors. […] The IC50 values were determined by plotting percent drug inhibition vs. log10 drug concentration.
Host cells were seeded in 10-cm-diameter dishes and were transfected several days after plating with resistance test vector plasmid DNA and the envelope expression vector. […] HIV capsid protein (p24) levels in the harvested cell culture media were determined by an EIA method as described by the manufacturer (SIAC; Frederick, Md.). […] The inhibitory effect of the drug was determined using the following equation: % luciferase inhibition=1−(RLUluc [drug]÷RLUluc)×100 where RLUluc [drug] is the relative light unit of luciferase activity in infected cells in the presence of drug and RLUluc is the Relative Light Unit of luciferase activity in infected cells in the absence of drug. […]

[2] = test system: HIV reverse transcriptase with mutations at codon 230 (leucine) and 181 (cysteine); experiment: Phenotypic susceptibility assay; format: cell-based; conditions: mutations at codons 230 and 181
From the text: In another specific embodiment, the invention provides for a method of evaluating the effectiveness of NNRTI antiretroviral therapy of a patient comprising (i) collecting a biological sample from an HIV-infected patient; and (ii) determining whether the biological sample comprises nucleic acid encoding HIV RT having a mutation at codon(s) 230 and/or 181. […] In another specific embodiment, the invention provides for a method of evaluating the effectiveness of NNRTI antiretroviral therapy of a patient comprising (i) collecting a biological sample from an HIV-infected patient; and (ii) determining whether the biological sample comprises nucleic acid encoding HIV RT having a mutation at codon 181. […] In another specific embodiment, the invention provides for a method of evaluating the effectiveness of NNRTI antiretroviral therapy of a patient comprising (i) collecting a biological sample from an HIV-infected patient; and (ii) determining whether the biological sample comprises nucleic acid encoding HIV RT having a mutation at codon 188. […]

| SMILES | decrease in susceptibility (fold, IC50) [1] | change in susceptibility [2] |
| --- | --- | --- |
| CC(C)Nc1cccnc1N1CCN(C(=O)c2cc3cc(NS(C)(=O)=O)ccc3[nH]2)CC1 [delavirdine] | 25 fold | significant decrease |
| Cc1ccnc2c1NC(=O)c1cccnc1N2C1CC1 [nevirapine] | greater than 800 fold | significant decrease |
